Experimental data reported in ChEMBL document CHEMBL2029314, “Discovery of HIV fusion inhibitors targeting gp41 using a comprehensive α-helix mimetic library” (Bioorg Med Chem Lett, 2012).

test: Displacement of C18-Aib-lucifer yellow from HIV1 envelope glycoprotein gp41 Fe(env2.0)3 by fluorescence assay; design: species or system Human immunodeficiency virus 1; conditions: not given

Row | Ki [µM] | Structure (SMILES)
1 | < 10 | N[C@@H](CC(=O)O)C(=O)Nc1ccc(C(=O)N[C@@H](Cc2c[nH]c3ccccc23)C(=O)O)cc1OCCc1c[nH]c2ccccc12
2 | 0.6 | N[C@@H](CC(=O)O)C(=O)Nc1ccc(C(=O)N[C@H](CC(=O)O)Cc2c[nH]c3ccccc23)cc1OCCc1c[nH]c2ccccc12
3 | < 10 | CSCC[C@H](N)C(=O)Nc1ccc(C(=O)N[C@@H](Cc2c[nH]c3ccccc23)C(=O)O)cc1OCCc1c[nH]c2ccccc12
4 | 18 | N[C@@H](CC(=O)O)C(=O)Nc1ccc(C(=O)NCCc2c[nH]c3ccccc23)cc1OCCc1c[nH]c2ccccc12
5 | < 10 | N[C@@H](Cc1ccc2ccccc2c1)C(=O)Nc1ccc(C(=O)N[C@@H](Cc2c[nH]c3ccccc23)C(=O)O)cc1OCCc1c[nH]c2ccccc12
6 | < 10 | CC(C)C[C@H](NC(=O)c1ccc(NC(=O)[C@@H](N)Cc2ccc3ccccc3c2)c(OCCc2c[nH]c3ccccc23)c1)C(=O)O
7 | < 10 | C[C@H](N)C(=O)Nc1ccc(C(=O)N[C@@H](Cc2c[nH]c3ccccc23)C(=O)O)cc1OCCc1c[nH]c2ccccc12
8 | < 10 | CC[C@H](N)C(=O)Nc1ccc(C(=O)N[C@@H](Cc2c[nH]c3ccccc23)C(=O)O)cc1OCCc1c[nH]c2ccccc12
9 | < 10 | CC(C)[C@H](N)C(=O)Nc1ccc(C(=O)N[C@@H](Cc2c[nH]c3ccccc23)C(=O)O)cc1OCCc1c[nH]c2ccccc12
10 | < 10 | CC(C)C[C@H](N)C(=O)Nc1ccc(C(=O)N[C@@H](Cc2c[nH]c3ccccc23)C(=O)O)cc1OCCc1c[nH]c2ccccc12
11 | < 10 | CC[C@H](C)[C@H](N)C(=O)Nc1ccc(C(=O)N[C@@H](Cc2c[nH]c3ccccc23)C(=O)O)cc1OCCc1c[nH]c2ccccc12
12 | < 10 | N[C@@H](CO)C(=O)Nc1ccc(C(=O)N[C@@H](Cc2c[nH]c3ccccc23)C(=O)O)cc1OCCc1c[nH]c2ccccc12
13 | < 10 | C[C@@H](O)[C@H](N)C(=O)Nc1ccc(C(=O)N[C@@H](Cc2c[nH]c3ccccc23)C(=O)O)cc1OCCc1c[nH]c2ccccc12
14 | < 10 | N[C@@H](Cc1ccccc1)C(=O)Nc1ccc(C(=O)N[C@@H](Cc2c[nH]c3ccccc23)C(=O)O)cc1OCCc1c[nH]c2ccccc12
15 | < 10 | N[C@@H](Cc1ccc(O)cc1)C(=O)Nc1ccc(C(=O)N[C@@H](Cc2c[nH]c3ccccc23)C(=O)O)cc1OCCc1c[nH]c2ccccc12
16 | 0.7 | COc1ccc(C[C@H](N)C(=O)Nc2ccc(C(=O)N[C@@H](Cc3c[nH]c4ccccc34)C(=O)O)cc2OCCc2c[nH]c3ccccc23)cc1
17 | < 10 | N[C@@H](Cc1c[nH]c2ccccc12)C(=O)Nc1ccc(C(=O)N[C@@H](Cc2c[nH]c3ccccc23)C(=O)O)cc1OCCc1c[nH]c2ccccc12
18 | 0.8 | NC(=O)C[C@H](N)C(=O)Nc1ccc(C(=O)N[C@@H](Cc2c[nH]c3ccccc23)C(=O)O)cc1OCCc1c[nH]c2ccccc12
19 | 21 | COC(=O)[C@H](Cc1c[nH]c2ccccc12)NC(=O)c1ccc(NC(=O)[C@@H](N)CC(=O)O)c(OCCc2c[nH]c3ccccc23)c1
20 | 50 | COc1ccc(C[C@H](N)C(=O)Nc2ccc(C(=O)N[C@H](CC(=O)O)Cc3c[nH]c4ccccc34)cc2OCCc2c[nH]c3ccccc23)cc1
21 | 100 | COc1ccc(C[C@H](N)C(=O)Nc2ccc(C(=O)N[C@H](CCC(=O)O)Cc3c[nH]c4ccccc34)cc2OCCc2c[nH]c3ccccc23)cc1

The remaining lines, values behind:

Row | Structure (SMILES) | Ki [µM]
22 | CSCC[C@H](N)C(=O)Nc1ccc(C(=O)N[C@@H](CCc2ccccc2)C(=O)O)cc1OCc1ccc(Cl)cc1 | < 25
23 | N[C@@H](CCc1ccccc1)C(=O)Nc1ccc(C(=O)N[C@@H](CCc2ccccc2)C(=O)O)cc1OCc1ccc(Cl)cc1 | < 25
24 | N[C@@H](Cc1ccc(O)cc1)C(=O)Nc1ccc(C(=O)N[C@@H](CCc2ccccc2)C(=O)O)cc1OCc1ccc(Cl)cc1 | < 25
25 | N[C@@H](Cc1c[nH]c2ccccc12)C(=O)Nc1ccc(C(=O)N[C@@H](CCc2ccccc2)C(=O)O)cc1OCc1ccc(Cl)cc1 | < 25
26 | CC[C@H](C)[C@H](N)C(=O)Nc1ccc(C(=O)N[C@@H](CCc2ccccc2)C(=O)O)cc1OCc1ccc(Cl)cc1 | < 25
27 | CSCC[C@H](N)C(=O)Nc1ccc(C(=O)N[C@@H](CCc2ccccc2)C(=O)O)cc1OCc1ccc2ccccc2c1 | < 10
28 | CC(C)C[C@H](NC(=O)c1ccc(NC(=O)[C@@H](N)CO)c(OCCc2c[nH]c3ccccc23)c1)C(=O)O | < 10
29 | CC(C)C[C@H](NC(=O)c1ccc(NC(=O)[C@@H](N)CC(=O)O)c(OCCc2c[nH]c3ccccc23)c1)C(=O)O | < 10
30 | CC(C)C[C@H](NC(=O)c1ccc(NC(=O)[C@@H](N)CC(N)=O)c(OCCc2c[nH]c3ccccc23)c1)C(=O)O | < 10
31 | CC(C)C[C@H](N)C(=O)Nc1ccc(C(=O)N[C@@H](CCc2ccccc2)C(=O)O)cc1OCc1ccc2ccccc2c1 | < 10
32 | CC[C@H](C)[C@H](N)C(=O)Nc1ccc(C(=O)N[C@@H](CCc2ccccc2)C(=O)O)cc1OCc1ccc2ccccc2c1 | < 10
33 | N[C@@H](CC(=O)O)C(=O)Nc1ccc(C(=O)N[C@@H](CCc2ccccc2)C(=O)O)cc1OCc1ccc2ccccc2c1 | < 10
34 | N[C@@H](Cc1ccc(O)cc1)C(=O)Nc1ccc(C(=O)N[C@@H](CCc2ccccc2)C(=O)O)cc1OCc1ccc2ccccc2c1 | < 10
35 | N[C@@H](Cc1c[nH]c2ccccc12)C(=O)Nc1ccc(C(=O)N[C@@H](CCc2ccccc2)C(=O)O)cc1OCc1ccc2ccccc2c1 | < 10
36 | N[C@@H](CCc1ccccc1)C(=O)Nc1ccc(C(=O)N[C@@H](CCc2ccccc2)C(=O)O)cc1OCc1ccc2ccccc2c1 | < 10
37 | O=C(O)CCC(=O)Nc1ccc(C(=O)N[C@@H](Cc2c[nH]c3ccccc23)C(=O)O)cc1OCCc1c[nH]c2ccccc12 | 0.6

test: Inhibition of HIV1 envelope glycoprotein 41-mediated membrane fusion between virus-transfected human HL2/3 cells and human TZM-bl cells after 6 hrs by luciferase reporter assay; type: cell-based; conditions: Human immunodeficiency virus 1, TZM-bl

Row | IC50 [µM] | Structure (SMILES)
38 | 5 | CC(C)C[C@H](NC(=O)c1ccc(NC(=O)[C@@H](N)Cc2c[nH]c3ccccc23)c(OCCc2c[nH]c3ccccc23)c1)C(=O)O
39 | 8 | COc1ccc(C[C@H](N)C(=O)Nc2ccc(C(=O)N[C@@H](Cc3c[nH]c4ccccc34)C(=O)O)cc2OCCc2c[nH]c3ccccc23)cc1
40 | 6 | NC(=O)C[C@H](N)C(=O)Nc1ccc(C(=O)N[C@@H](Cc2c[nH]c3ccccc23)C(=O)O)cc1OCCc1c[nH]c2ccccc12

Second part, the molecule before the results:

Row | Structure (SMILES) | IC50 [µM]
41 | CC(C)[C@H](NC(=O)c1ccc(N)c(OCc2ccc(O)cc2)c1)C(=O)O | < 30
42 | CC[C@H](NC(=O)c1ccc(N)c(OCc2ccc(O)cc2)c1)C(=O)O | < 30
43 | CSCC[C@H](NC(=O)c1ccc(N)c(OCc2ccc(O)cc2)c1)C(=O)O | < 30
44 | Nc1ccc(C(=O)N[C@@H](CO)C(=O)O)cc1OCc1ccc(O)cc1 | < 30
45 | Nc1ccc(C(=O)N[C@@H](Cc2ccc(O)cc2)C(=O)O)cc1OCc1ccc(O)cc1 | < 30
46 | NC(=O)C[C@H](NC(=O)c1ccc(N)c(OCc2ccc(O)cc2)c1)C(=O)O | < 30
47 | Nc1ccc(C(=O)N[C@@H](Cc2ccc3ccccc3c2)C(=O)O)cc1OCc1ccc(O)cc1 | < 30
48 | CC[C@H](C)[C@H](NC(=O)c1ccc(N)c(OCCc2c[nH]c3ccccc23)c1)C(=O)O | < 30
49 | CC(C)C[C@H](NC(=O)c1ccc(N)c(OCCc2c[nH]c3ccccc23)c1)C(=O)O | < 30
50 | Nc1ccc(C(=O)N[C@@H](CCc2ccccc2)C(=O)O)cc1OCCc1c[nH]c2ccccc12 | < 30
51 | Nc1ccc(C(=O)N[C@@H](Cc2ccc(Cl)cc2)C(=O)O)cc1OCCc1c[nH]c2ccccc12 | < 30
52 | Nc1ccc(C(=O)N[C@@H](Cc2c[nH]c3ccccc23)C(=O)O)cc1OCCc1c[nH]c2ccccc12 | < 30
53 | CC[C@H](C)[C@H](NC(=O)c1ccc(N)c(OCc2ccc(Cl)cc2)c1)C(=O)O | < 30
54 | Nc1ccc(C(=O)N[C@@H](Cc2ccc3ccccc3c2)C(=O)O)cc1OCc1ccc(Cl)cc1 | < 30
55 | CC[C@H](C)[C@H](NC(=O)c1ccc(N)c(OCc2ccc3ccccc3c2)c1)C(=O)O | < 30
56 | CC(C)C[C@H](NC(=O)c1ccc(N)c(OCc2ccc3ccccc3c2)c1)C(=O)O | < 30
57 | Nc1ccc(C(=O)N[C@@H](CCc2ccccc2)C(=O)O)cc1OCc1ccc2ccccc2c1 | < 30
58 | Nc1ccc(C(=O)N[C@@H](CC(=O)O)C(=O)O)cc1OCc1ccc2ccccc2c1 | < 30
59 | Nc1ccc(C(=O)N[C@@H](Cc2ccccc2)C(=O)O)cc1OCc1ccc2ccccc2c1 | < 30
60 | Nc1ccc(C(=O)N[C@@H](Cc2ccc(O)cc2)C(=O)O)cc1OCc1ccc2ccccc2c1 | < 30
61 | COc1ccc(C[C@H](NC(=O)c2ccc(N)c(OCc3ccc4ccccc4c3)c2)C(=O)O)cc1 | < 30
